Measured values as given in US20190359560A1, “ANTI-INFLAMMATORY DRUG AND USES THEREOF” (KYUSHU UNIVERSITY, NATIONAL UNIVERSITY CORPORATION, priority 2015, published 2019).

Assays:
[1] = tested on: neuropathic pain model mouse; assay: Neuropathic pain model constructed by cancer transplantation; type: in vivo; settings: tumor-bearing mice 2 weeks after cancer transplantation, 15 mg/kg subcutaneous, at 4, 6 and 8 hours
Method: The neuropathic pain model constructed by cancer transplantation activates NF-κB. Therefore, a dose of 15 mg/kg of Compound No. 2 was subcutaneously administered to a model mouse in which the […] was carried out at 2 weeks after cancer transplantation and the pain intensity was measured to confirm that pain was induced.

[2] = Blood and liver concentration after oral administration (LC/MS/MS); type: in vivo, mouse; settings: mice, 15 mg/kg oral
Method: Compound No. 2 (15 mg/kg) was orally administered to mice. Blood was collected at 0 minutes, 5 minutes, 15 minutes, 30 minutes, 1 hour, 2 hours, 4 hours, 6 hours and 12 hours after the administration of Compound No. 2 and the blood concentration of the compound was measured by LC/MS/MS. In addition, the liver was harvested at 0 minutes, 5 minutes, 15 minutes, 30 minutes, 1 hour and 6 hours after the administration of Compound No. 2, and the liver concentration of the compound was measured by LC/MS/MS.

[3] = tested on: G0S2 protein; assay: G0S2 protein in liver of normal mice; type: in vivo, mouse; settings: normal ICR male mice, 15 mg/kg subcutaneous, 4 hours and 6 hours after administration
[4] = tested on: G0S2 mRNA; assay: G0S2 mRNA expression in Hepa1-6 cells (qRT-PCR); type: cell-based, mouse; settings: 48 hours
Method: The effect of the compound on the expression level of mRNA of the G0S2 gene was evaluated for the three compounds extracted so far. 24 hours after seeding with Hepa1-6 cells, the cells were exposed to hit compounds at 10 μM and sampling and total RNA extraction were carried out 24 hours later. Subsequently, changes in the expression level of mRNA of the G0S2 gene were measured by a qRT-PCR method.
Hepa1-6 cells were exposed to 10 μM of each of seven derivatives of Compound No. 2 (Examples 2 and 4 to 9) and an effect of the derivative compounds on the expression level of G0S2 mRNA after 24 hours was evaluated.
Therefore, Hepa1-6 cells were exposed to Compound No. 2 and the compound of Example 2 (NS-3-011) in the range of 0.5 to 5 μM and an effect of the compounds on the expression level of endogenous G0S2 mRNA after 48 hours was evaluated.
Subsequently, Hepa1-6 cells were transfected with siRNA against Hsd17b4 or control siRNA in the presence (10 μM) or absence (indicated as “DMSO” in FIG. 22B) of Compound No. 2. Subsequently, each cell was recovered after 48 hours and total RNA was extracted. Subsequently, the expression level of the G0S2 gene was quantified by real-time PCR.

[5] = tested on: Bmal1 promoter; assay: Bmal1 promoter luciferase assay in MEF cell line; type: cell-based; settings: MEF reporter cell line, 10 μM, 24 hours
Method: Therefore, in order to exclude compounds having an effect on clock genes in normal cells, studies were conducted using the MEF cell line stably expressing an expression cassette in which a luciferase gene was ligated to the downstream side of the Bmal1 promoter.

[6] = tested on: p65 protein (NF-κB); assay: LPS-administered mice: nuclear abundance of p65 protein in liver (Western blotting); type: in vivo; settings: LPS 10 μg/mouse tail vein; 5 mg/kg subcutaneous 1 hour after LPS; liver 5 hours later; vs LPS group
Method: LPS (10 μg/mouse) was administered to ICR male mice by tail vein injection to prepare an LPS-administered group. In addition, a mouse to which physiological saline was administered instead of LPS was prepared and used as a control group. Subsequently, the LPS-administered group was divided into two groups, in which 1 hour after the administration of LPS, Compound No. 2 was subcutaneously administered at a dose of 5 mg/kg to the dorsal region of mice of one group which was then served as an LPS+No. 2-administered group. Subsequently, 5 hours after the administration of Compound No. 2, mice of each group were sacrificed and the liver was harvested.
For the liver of mice of each group, the nuclear abundance of the p65 protein, which is one of the constituent proteins of NF-κB, was quantified by Western blotting. FIG. 11B is a graph showing the quantitative results of the p65 protein.

Question: Which “pain intensity (PWT) over time” value [1] does the source give for `CCCCCCNC(=N)NCc1ccccc1` [Compound No. 2] here?
Answer: significantly relieved

Question: And the “time after administration at which concentration in blood was highest” value [2]?
Answer: 15 min

Question: What about the “time after administration at which concentration in liver was highest” value [2] of the same molecule?
Answer: 5 min

Question: And the “expression level of G0S2 protein in the liver” value [3]?
Answer: significant decrease

Question: What about the “G0S2 mRNA expression level” value ([4]; 5 μM, vs DMSO) of the same molecule?
Answer: significant decrease

Question: What about the “effect of lowering the expression level of the G0S2 gene after transfection with siRNA against Hsd17b4” value ([4]; 10 μM) of the same molecule?
Answer: disappeared

Question: And the “expression level of the G0S2 gene” value ([4]; 10 μM, control siRNA)?
Answer: significantly decreased

Question: And the Bmal1 promoter activity [5]?
Answer: no significant change

Question: What about the “nuclear abundance of the p65 protein in the liver” value [6] of the same molecule?
Answer: significantly decreased
